Measured values published in US11925653B2, “Combination therapy effective against microorganisms, including drug resistant microorganisms” (Fleurir ABX LLC, priority 2021, dated 2024).

How the values were obtained:
bacteria = test: spontaneous mutational frequency (SMF; resistance); type: cell-based; settings: resistant colonies observed divided by total inoculum; plates with 4-fold MIC of the combination or 2-fold MIC of each antibiotic alone
Experimental: MIC was further evaluated to confirm resistance, and the spontaneous mutational frequency was calculated based on the following equation: […]
The spontaneous mutational frequency (SMF; resistance) was calculated as the number of resistant colonies observed divided by the total inoculum.

H. influenzae = settings: cited from earlier work
E. faecalis = settings: cited from earlier work
[1] = representative pharmacokinetic parameters; type: in vivo; settings: Dose: Fosfomycin 3000 mg, trimethoprim 720 mg
Source text: The therapeutically effective amount may be modified by pharmacokinetic, and pharmacodynamic analysis as is understood in the field. In some embodiments, the novel composition may be provided prophylactically or preventatively or protectively, which may, in some instances, be at or below a therapeutically effective amount.

kel (elimination rate constant) [1] [h⁻¹]	Tmax ([1]; sulfamethoxazole 3600 mg) [h]	Structure (SMILES)	frequency of spontaneous mutants resistant (spontaneous mutational frequency, SMF) (bacteria)	MIC of co-trimoxazole, per component (H. influenzae) [µg/mL]	MIC of co-trimoxazole, per component (E. faecalis) [µg/mL]
		O=C1CN(/N=C/c2ccc([N+](=O)[O-])o2)C(=O)N1 [nitrofurantoin]	3.40×10^−8		
		Cc1cc(NS(=O)(=O)c2ccc(N)cc2)no1 [sulfamethoxazole, N1-(5-methyl-3-isoxazolyl)sulfanilamide]		≤ 9.5	38
0.08	2	COc1cc(Cc2cnc(N)nc2N)cc(OC)c1OC [trimethoprim, 2,4-diamino-5-(3,4,5-trimethoxybenzyl)pyrimidine]		0.5	2
